Source: US20150311441A1, “METAL COMPLEX COMPOUND, AND ORGANIC LIGHT-EMITTING ELEMENT AND DISPLAY DEVICE CONTAINING THE SAME” (CANON KABUSHIKI KAISHA, priority 2014, published 2015)

Experiment: Stability to water of a deposition film
Conditions: for State of the film after 5 min (stability to water): 100 nm deposition film on glass substrate, water dropped on film, state after 5 minutes measured with thickness profiler (Alpha-Step); for Dissolution of the film in water: deposition film in contact with water, summary of the Table 1 test
Procedure: The stability to water of the metal complex compound was examined. A deposition film was formed to a thickness of 100 nm on a glass substrate, and water was dropped on the deposition film. After 5 minutes, the state of the film was measured with a thickness profiler (Alpha-Step). Also, the stability to water of lithium fluoride and cesium fluoride, which are generally used as an electron injection material, were examined for comparison.

Q: Which “State of the film after 5 min (stability to water)” value does the source give for `[F-].[Li+]` [compound 1, lithium fluoride] here?
A: Dissolved

Q: And the “Dissolution of the film in water” value?
A: dissolved in water immediately

Q: Which “State of the film after 5 min (stability to water)” value does the source give for `[Cs+].[F-]` [compound 2, cesium fluoride] here?
A: Dissolved

Q: What about the “Dissolution of the film in water” value of the same molecule?
A: dissolved in water immediately
